{"source": "patent US12427212B2", "about": "“Nectin-4 binding miniproteins, conjugates and uses thereof” (Aktis Oncology, Inc., priority 2023, dated 2025)", "key": {"mouse Nectin-4": {"biological_target": "T1, mouse Nectin-4 (Mus musculus, UniProt Q8R007)", "T1 sequence (Q8R007 31-508)": "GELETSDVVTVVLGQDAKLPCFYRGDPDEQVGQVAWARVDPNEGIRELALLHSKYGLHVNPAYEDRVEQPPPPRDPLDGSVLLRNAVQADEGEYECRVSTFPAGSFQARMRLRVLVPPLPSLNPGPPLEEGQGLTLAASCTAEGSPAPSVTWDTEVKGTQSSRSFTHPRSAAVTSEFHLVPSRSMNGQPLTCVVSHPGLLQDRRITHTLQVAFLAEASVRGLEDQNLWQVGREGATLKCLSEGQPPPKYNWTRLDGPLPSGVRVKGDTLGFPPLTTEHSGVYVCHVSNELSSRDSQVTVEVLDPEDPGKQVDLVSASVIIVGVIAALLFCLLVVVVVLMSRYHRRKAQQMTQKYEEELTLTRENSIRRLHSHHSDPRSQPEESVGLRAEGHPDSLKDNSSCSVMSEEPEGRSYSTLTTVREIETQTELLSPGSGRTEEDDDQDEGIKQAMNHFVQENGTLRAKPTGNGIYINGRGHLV", "experiment": "Surface plasmon resonance (Biacore), 1:1 binding model, mouse Nectin-4", "settings": "SPR, 25° C.", "experimental": "(§1) Peptide binding affinity to the target protein was measured by SPR using an SPR machine, such as a Biacore T200 instrument. The target protein was covalently coupled to a Biacore chip surface using free amine-coupling chemistry (NHS/EDC) and all uncoupled sites were blocked with ethanolamine. Free peptides were flowed over the target protein surface in increasing concentrations to measure association (Ka, 1/Ms^−1)) and dissociation (Kd, s^−1) to calculate the dissociation equilibrium constant (KD) using an appropriate binding model (see, e.g., Nikolas Stroth, J Biol Methods. 2016; 3 (1)).\n(§2) In FIGS. 1A, 1B, 2A, and 2B, lines on graphs are labeled from top to bottom, beginning with letter “a.” and the corresponding concentration is noted to the right of the figure.\n(§3) (i.e., a conjugate comprising a Nectin-4 peptide of SEQ ID NO: 5 and arranged having an N-terminus comprising ^138La-DOTA-PEG4 and a C-terminus comprising OH). […] In both FIGS. 3A and 3B, lines on graphs were labeled from top to bottom, beginning with letter a, and the corresponding concentration was noted to the right of the figure."}, "Nectin-4": {"biological_target": "T2, Nectin-4 (Homo sapiens, UniProt Q96NY8)", "T2 sequence (Q96NY8 32-510)": "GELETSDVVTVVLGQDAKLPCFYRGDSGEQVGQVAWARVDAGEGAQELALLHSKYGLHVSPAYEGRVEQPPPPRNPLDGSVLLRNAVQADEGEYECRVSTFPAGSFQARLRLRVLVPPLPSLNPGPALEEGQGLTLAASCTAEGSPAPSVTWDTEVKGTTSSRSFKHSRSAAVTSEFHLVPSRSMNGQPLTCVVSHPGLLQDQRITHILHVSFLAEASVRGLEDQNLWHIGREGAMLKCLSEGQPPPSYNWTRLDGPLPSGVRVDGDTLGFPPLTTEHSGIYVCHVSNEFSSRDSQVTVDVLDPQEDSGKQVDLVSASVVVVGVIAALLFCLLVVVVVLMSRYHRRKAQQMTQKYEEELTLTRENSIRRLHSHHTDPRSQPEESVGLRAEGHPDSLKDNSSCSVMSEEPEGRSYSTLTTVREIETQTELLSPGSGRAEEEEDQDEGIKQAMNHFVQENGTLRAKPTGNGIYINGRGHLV", "experiment": "Surface plasmon resonance (Biacore), 1:1 binding model, human Nectin-4", "settings": "SPR, 25° C.", "experimental": "as §1, §2, §3"}, "[1]": {"tested_on": "HT-1376 urothelial cancer cells", "experiment": "In vitro cell cytotoxicity assay of 225Ac-radioconjugates (CellTiter-Glo)", "format": "cell-based, human", "settings": "compound radiolabeled with 225Ac, 24 h treatment, 4-5 day regrowth, HT-1376 cells", "experimental": "Cytotoxicity to ^225Ac-radioconjugates was assessed in HT-1376 urothelial cancer cells. Cells were seeded in 96-well plates at densities of 250 to 1000 cells per well two days prior to treatment. On the day of treatment ^225Ac-radioconjugates were diluted in culture medium to concentrations ranging from 0,0001 to 100 μCi/mL and treatment solutions were incubated with cells for 24 h. At the end of the treatment period, the treatment solution was removed, and fresh culture medium was replenished for the regrowth period of the assay that lasted 4-5 day's. At the end of the regrowth period the culture medium was removed and viability was assessed by CellTiter-Glo (Promega, Waltham MA) luminescent assay and the plates were read on a Perkin Elmer Enspire multimode plate reader. Data were normalized to treatment controls and plotted as non-linear sigmoidal dose response curves to determine the effective concentration for 50% reduction in cell viability."}, "[2]": {"experiment": "In vitro metabolic stability in serum/plasma (percent parent remaining, LC-MS)", "format": "in vitro ADME", "settings": "mouse", "experimental": "Exemplary miniproteins were spiked into biological matrices at initial concentration between 1-2 μM. Tested matrices were varied by species (mouse, rat, human) and type (plasma, serum, and kidney brush border membrane (kBBM) preparations tested each from 0.625-100 μg/mL protein content). Tested conditions were incubated with miniproteins at 37° C. for 4 h. At collection points of 0, 15, 30, 60, 120, 240 minutes, 50 μL of each condition were quenched by organic solvent (methanol or acetonitrile) or the addition of 4% phosphoric acid solution followed by solid-phase extraction. Fractions of each quenched timepoint were subsequently assayed for parent miniproteins concentration by high resolution LC-MS. Percent-parent-remaining-time plots were constructed from the ratio of each given time collection to the time-zero parent miniprotein. Percent-parent-remaining in mouse serum and plasma for exemplary miniproteins are recorded in TABLE 11."}, "[3]": {"experiment": "In vivo biodistribution of 111In-labeled miniproteins by SPECT/CT, HT-1376 xenograft", "design": "species or system mouse", "settings": "female, athymic nude, mouse, in vivo", "in_short": "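Uptake in % ID/g from maximum intensity projections of SPECT/CT scans, with SPECT in activity units and CT windowed −500 to 4500 HU. Animals carried HT-1376 tumors, a human Nectin-4-expressing line, and were dosed with 111In-labeled miniproteins.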"}, "[4]": {"experiment": "Biodistribution of radiolabeled miniprotein conjugates by SPECT/CT, HT-1376-OE xenograft", "settings": "female, mouse, in vivo, iv, Kidneys; for tissue uptake at 4 h: 4 h (% ID/g) Average; for tissue uptake at 22 h: 22 h (% ID/g) Average", "experimental": "6-8 week old female mice were engrafted through subcutaneous injection with cultured 3.0×10^6 HT-1376-OE cells (1:1—Cells:Matrigel). HT-1376-OE is a model cell line that highly expresses Nectin-4. Fourteen (14) days later, the mice were each dosed with a radiolabeled miniprotein, for example at a dose of ˜350 μCi/3.5 μg miniprotein. SPECT and/or CT imaging of the mice was done at timepoints between 15 min to 24 h after the administration of the injected dose, such as 4 h and 22 h (static scanning). Initial SPECT and/or CT rapid dynamic scanning was done at time points between 15 min and 75 min after the administration of the injected dose. For each miniprotein tested, a group of three mice were used, as summarized below in TABLE 16A."}}, "note": "Read-outs that look alike come from different tables or passages of the source. Bridges are numbered along the chain shown (N, C = ends). Primed or numbered codes have the meaning given here. [ ]: non-standard residue; d: D form. The star is where a group is joined. DOTA = O=C(O)CN1CCN(CC(=O)O)CCN(CC(=O)*)CCN(CC(=O)O)CC1; Lys(Me3) = C[N+](C)(C)CCCC[C@H](N)C(=O)O; Cit = NC(=O)NCCC[C@H](N)C(=O)O; PEG4 = NCCOCCOCCOCCOCCC(=O)O; PEG4′ = not defined here"}
{"substance": "Ac-CEYDEEFFAGLKRLRGGDICYYIKKKFDKVPDLCIEEILDKLGC-OH (disulfide 1-34, 20-44) [Compound C9]", "values": [{"measurement": "Kd", "setting": "mouse Nectin-4", "result": 7.82, "unit": "nM"}, {"measurement": "kd for mouse Nectin-4", "setting": "mouse Nectin-4", "result": 0.02134, "unit": "s⁻¹"}, {"measurement": "Kd", "setting": "Nectin-4", "result": 7.5, "unit": "nM"}, {"measurement": "kd for human Nectin-4", "setting": "Nectin-4", "result": 0.02271, "unit": "s⁻¹"}]}
{"substance": "C214 ({DOTA-PEG4′}-CEYDEEFFTALKRLRGGDICYYIKKKFDYLPKLCIEEILDNLGC-NH2; disulfide 1-34, 20-44) [Compound C214]", "values": [{"measurement": "EC50 (microcurie/milliliter) for 225Ac radioconjugates", "setting": "[1]", "result": 0.014, "unit": "microcurie/milliliter"}]}
{"substance": "{DOTA-PEG4}-CDYDEQFFTALA[Cit]LRGGDICEYIQA[Lys(Me3)]FQYLPGLCIEEILDNLGCS-OH (disulfide 1-34, 20-44 (inferred)) [Compound C260]", "values": [{"measurement": "half-life", "setting": "[2]", "result": 11.2, "unit": "h"}, {"measurement": "half-life", "setting": "[2]; plasma", "result": "> 12", "unit": "h"}, {"measurement": "tissue uptake at 4 h", "setting": "[3]", "result": 12.8, "unit": "%ID/g"}, {"measurement": "tissue uptake at 24 h", "setting": "[3]", "result": 7.36, "unit": "%ID/g"}, {"measurement": "tissue uptake at 4 h", "setting": "[4]", "result": 11.6, "unit": "%ID/g"}, {"measurement": "tissue uptake at 22 h", "setting": "[4]", "result": 6.92, "unit": "%ID/g"}]}
{"substance": "{DOTA-PEG4}-CEYDEEFFAGLKRLRGGDICYYIKKKFDKVPDLCIEEILDKLGC-OH (disulfide 1-34, 20-44) [Compound C12]", "values": [{"measurement": "kd for mouse Nectin-4", "setting": "mouse Nectin-4", "result": 0.02625, "unit": "s⁻¹"}, {"measurement": "kd for human Nectin-4", "setting": "Nectin-4", "result": 0.01697, "unit": "s⁻¹"}]}
{"substance": "{DOTA-PEG4}-CEYDEEFFAGLKRLRGGDICYYIKKKFDKVPDLCIEEILDKLGC-OH (disulfide 1-34, 20-44) [Compound C91]", "values": [{"measurement": "kd for mouse Nectin-4", "setting": "mouse Nectin-4", "result": 0.02817, "unit": "s⁻¹"}, {"measurement": "kd for human Nectin-4", "setting": "Nectin-4", "result": 0.02966, "unit": "s⁻¹"}]}
{"substance": "{DOTA-PEG4}-CEYDEEFFTALARLRGGDICQYIQAKFQYLPGQCIEEILDNLGCS-OH (disulfide 1-34, 20-44) [Compound C244]", "values": [{"measurement": "half-life", "setting": "[2]", "result": "> 12", "unit": "h"}, {"measurement": "half-life", "setting": "[2]; plasma", "result": "> 12", "unit": "h"}, {"measurement": "tissue uptake at 4 h", "setting": "[3]", "result": 27.7, "unit": "%ID/g"}, {"measurement": "tissue uptake at 24 h", "setting": "[3]", "result": 15.9, "unit": "%ID/g"}, {"measurement": "tissue uptake at 4 h", "setting": "[4]", "result": 29.5, "unit": "%ID/g"}, {"measurement": "tissue uptake at 22 h", "setting": "[4]", "result": 17.8, "unit": "%ID/g"}]}
{"substance": "{DOTA-PEG4}-CEYDEQFFTALKALRGGDICYYIQASFNYLPDLCIEEILDNLGCS-OH (disulfide 1-34, 20-44 (inferred)) [Compound C113]", "values": [{"measurement": "tissue uptake at 4 h", "setting": "[3]; 111In-labeled miniprotein, SPECT/CT, kidneys, 4 h post-dosing, n=3 mice, read-out: Biodistribution, Kidneys, 4 h (% ID/g) Average", "result": 87.9, "unit": "%ID/g"}, {"measurement": "tissue uptake at 24 h", "setting": "[3]; 111In-labeled miniprotein, SPECT/CT, kidneys, 24 h post-dosing, n=3 mice, read-out: Biodistribution, Kidneys, 24 h (% ID/g) Average", "result": 42.7, "unit": "%ID/g"}, {"measurement": "EC50 (microcurie/milliliter) for 225Ac radioconjugates", "setting": "[1]", "result": 0.042, "unit": "microcurie/milliliter"}]}
